“And” between values parts separate entries of the source, which are not always exact repeats. Equal values may be shown once. Ends that are not written are not given here.
Experiments:
human FPRL1 = biological target: T1, human FPRL1 (Homo sapiens, UniProt P25090); assay: Calcium flux in FPRL1-L1.2 transfectants; format: cell-based; conditions: for Designation and FPRL1 Activity: qualitative rating high, moderate, low, see Example 9; for Notes: activity: qualitative rating, Table 6
T1 construct: Full length cDNA encoding FPRL1 was cloned, using the polymerase chain reaction (PCR), from genomic DNA isolated from undifferentiated HL-60 cells; expressed in transfected cells; linearized FPRL1/pcDNA3.1, electroporation
T1 sequence (P25090 1-351): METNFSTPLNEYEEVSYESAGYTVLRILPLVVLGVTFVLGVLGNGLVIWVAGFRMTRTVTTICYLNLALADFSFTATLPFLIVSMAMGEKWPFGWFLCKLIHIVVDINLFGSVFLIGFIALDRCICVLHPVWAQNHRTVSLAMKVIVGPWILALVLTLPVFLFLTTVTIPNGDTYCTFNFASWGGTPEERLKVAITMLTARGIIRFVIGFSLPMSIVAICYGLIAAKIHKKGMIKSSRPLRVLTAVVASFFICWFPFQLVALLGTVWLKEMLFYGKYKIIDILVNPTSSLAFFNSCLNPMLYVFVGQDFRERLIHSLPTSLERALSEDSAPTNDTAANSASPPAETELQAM
Procedure: Ca^2+ mobilization responses were performed using the intracellular ratiometric fluorescent dye, lndo-1. Cells were loaded with Indo-1/AM (3 μM; Molecular Probes, Eugene, Oreg.) in culture medium (45 min, 20° C., 10^7 cells/ml). After dye loading, cells were washed once with 10 ml PBS) and resuspended at 10^6 cell/ml in HBSS containing 1% FBS. Cytosolic [Ca^2+] release was determined using excitation at 350 nm using a Photon Technology International fluorimeter (excitation at 350 nm, ratioed dual emission at 400 and 490 nm).
The functional activities of CKβ8-1 (25-116) were investigated in human FPRL1-L1.2 transfectants and in native L1.2 cells. Stable expression of formyl peptide-like receptor 1 (FPRL1) in L.1.2 cell was obtained as follows. Full length cDNA encoding FPRL1 was cloned, using the polymerase chain reaction (PCR), from genomic DNA isolated from undifferentiated HL-60 cells. […] Twenty micrograms of the FPRL1/pcDNA3.1 construct were linearized by digestion with Bsm1 (New England Biolabs, Beverly, Mass.) and used to transfect the murine B cell line L1.2 as follows. Twenty five million cells were washed twice and resuspended in 0.8 ml of PBS. The cells were incubated for 10 min at room temperature with the linearized FPRL/pcDNA3.1 construct DNA and transferred to a 0.4-cm cuvette, and a single electroporation pulse was applied at 250 V, 960 μF. Electroporated cells were incubated for 10 min at room temperature and transferred to culture at 37° C. in RPMI supplemented with 10% FCS. Geneticin (G418) was added to a final concentration of 800 μg/ml 48 h posttransfection and the cells plated into 96-well plates at 25,000 cells/well. After 2-3 weeks under drug selection, stable geneticin-resistant FPLR1 expressing cells were assessed for their ability to mobilize Ca^++ in response to SHAAGtide or CKbeta 8-1 at concentrations of 1 to 1000 nM.
A calcium flux test was performed on these transfectants using the method described in Example 1.
Stable expression of human FPRL1 in L1.2 cells was obtained as in Example 6. Calcium flux tests were conducted on the transfectants using the method described in Example 1. Chemokines (CKβ8(1-99), CKβ8(25-99), CKβ8-1(1-116) and CKβ8-1(25-116), were prepared as in Example 1. W peptides 1 and 2 were obtained as in Example 6. In addition, and the following SHAAGtide sequences and truncated variants (prepared as in Example 8) were tested:
All ligands were added in a dose response manner and the peak calcium flux response determined.

dendritic cells = assay: Dendritic cell infiltration after intradermal injection in mice (anti-DEC-205 staining); format: in vivo; parameters: key to Dendritic cell infiltration Score / Infiltration Score: 0 = none, 1 = slight, 2 = mild, 3 = moderate, 4 = severe; conditions: for Infiltration Score: BALB/c mice, various doses
From the text: The following chemokines were obtained from R&D Systems (Minneapolis, Minn.): vMCK-2, mC10, and GM-CSF. The following peptides were synthesized at Phoenix Pharmaceuticals (San Carlos, Calif.): SHAAYtide (SEQ ID NO:6), several […] MODIFIED peptides of SHAAGtide variant (SEQ ID NO:) (i.e. cyclized using the MPR-Cys linked cyclization), control peptide (SEQ ID NO:33, […]Gin Pro Gly lie Lys Arg Arg Trp Leu Met), randomly conjugated to OVA in either a 1:1 or 1:4 ratio (by MBS coupling method), and conjugated to OVA at the C-terminus (C-term, made by the addition of a cysteine), and SHAAGtide variant (SEQ ID NO:3). In three separate experiments, chemokines or peptides (2 μg or 20 μg in PBS) were injected intradermally into BALB/c or C57BI/6 mice (Jackson Laboratory; Bar Harbor, Me.). In each experiment, one mouse received an injection of PBS only as a negative control. At various times after injection, the mice were euthanized, and the area around the injection site was excised and subjected to immunohistology. Frozen sections were stained with anti-DEC-205 antibody (Bio-Whittaker Molecular Applications; Rockland, Me.) that recognizes a dendritic cell-specific molecule (Kraal et al., 1986). A relative staining number on a scale of […] was assigned to each section (0, none; 1, slight; 2, mild; 3, moderate; 4, severe).

OVA-specific IgG = assay: Adjuvant activity, anti-OVA antibodies in mice (Example 17); format: in vivo, BALB/c mice; conditions: 10 μg OVA
Procedure: First, 96-well U-bottom plastic dishes were coated overnight with 1 μg ovalbumin (OVA) in 100 μl PBS per well. The next day, the dishes were rinsed with PBS, blocked with PBS containing 5% fetal bovine serum (FBS), and rinsed with PBS again. Plasma samples from experimental animals (see below) were diluted 10^2- to 10^5-fold and added to the dishes for 2 hours, after which the dishes were again rinsed with PBS. The dishes were then incubated with biotinylated goat anti-monkey IgG detection antibodies, then rinsed with PBS and incubated with streptavidin-linked horseradish peroxidase (SA-HRP). After a final rinsing with PBS, the HRP substrate 2,2′-Azinobis [3-ethylbenzothiazoline-6-sulfonic acid]-diammonium salt was added. Color development was measured with an ELISA plate reader at 405 nm, and optical density (OD) units were converted to arbitrary “antibody units,” where a unit is defined as the inverse of the plasma dilution that produces 50% of the maximum response from a standard curve obtained by serial dilution of an ascites collected from OVA-injected mice and containing OVA-specific antibodies.
The experiment described in Example 16 was repeated, except the formulations were administered to BALB/c mice with 10 μg (Table 20) or 500 μg (Table 21) of OVA with in 100 μl. IFA was not used.
BALB/c mice were given OVA with or without SHAAYtide (SEQ ID NO:6) either intraperitoneally on days 0 and 21 (Table 20), or sub-cutaneously on days 0 and 14 (Table 21). Blood samples were collected at the indicated time points. The results, reported in antibody units, are given in Tables 20 and 21, showing IgG levels.

[1] = intraperitoneally on days 0 and 21, 0 day

## WRRKIGPQM [SEQ ID NO: 9]
Human FPRL1
  Designation and FPRL1 Activity: Low

## RRKIGPQMTLSHAAG [SEQ ID NO: 2]
Human FPRL1; peak calcium flux, dose response, read-out: Induction of Calcium Flux in FPRL1 L1.2 Cells, IC 50
  IC50: > 50 µM

## IGPQMTLSHAAG [SEQ ID NO: 4]
Human FPRL1
  Designation and FPRL1 Activity: Low

## GM-CSF
Dendritic cells; 6 hours
  Infiltration Score: 2 and 1
Dendritic cells; 30 hours
  Infiltration Score: 1
Dendritic cells; summary of Tables 15, 16 and 17
  infiltration of DEC-205-labeled cells: excellent infiltration

## MLWRRKIGPQM [SEQ ID NO: 8]
Human FPRL1
  Designation and FPRL1 Activity: moderate FPRL1 activity
  Notes: activity: Moderate
Human FPRL1; listed as CCXP8
  Designation and FPRL1 Activity: Moderate

## MLWRRKIGPQMTLSH [SEQ ID NO: 3]
Human FPRL1
  Designation and FPRL1 Activity: High
  Notes: activity: High

## 2 μg SHAAYtide (SEQ ID NO: 6): 2 μg SHAAYtide without OVA (MLWRRKIGPQMTLSHAAY; SHAAGtide variant)
OVA-specific IgG; [1]
  anti-OVA IgG, individual mouse: 7 antibody units (2×) and 14 antibody units and 24 antibody units
OVA-specific IgG; intraperitoneally, 0 day
  anti-OVA IgG, average: 13 antibody units
OVA-specific IgG; intraperitoneally, 10 d
  anti-OVA IgG, average: 68 antibody units
  anti-OVA IgG, increase from day 0: 55 antibody units
  anti-OVA IgG, individual mouse: 0 antibody units (3×) and 273 antibody units
OVA-specific IgG; intraperitoneally, 15 d
  anti-OVA IgG, average: 0 antibody units
  anti-OVA IgG, increase from day 0: 0 antibody units
  anti-OVA IgG, individual mouse: 0 antibody units
OVA-specific IgG; intraperitoneally, 27 d
  anti-OVA IgG, average: 51 antibody units
  anti-OVA IgG, increase from day 0: 38 antibody units
  anti-OVA IgG, individual mouse: 47 antibody units (2×) and 58 antibody units
OVA-specific IgG; intraperitoneally, 31 d
  anti-OVA IgG, average: 19 antibody units
  anti-OVA IgG, increase from day 0: 6 antibody units
  anti-OVA IgG, individual mouse: 47 antibody units and 17 antibody units and 12 antibody units and 0 antibody units
OVA-specific IgG; intraperitoneally, 36 d
  anti-OVA IgG, average: 42 antibody units
  anti-OVA IgG, increase from day 0: 29 antibody units
  anti-OVA IgG, individual mouse: 60 antibody units (2×) and 46 antibody units and 0 antibody units

## WRRKIG [SEQ ID NO: 10, Trp Arg Arg Lys Ile Gly]
Human FPRL1
  Designation and FPRL1 Activity: Low

## SHAAYtide (SEQ ID NO: 6), cyclized: structurally modified peptide, cyclized using the MPR-Cys linked cyclization (MLWRRKIGPQMTLSHAAY; also: cyclized using MPR-Cys linked cyclization, MPR and Cys not in given letters)
Dendritic cells; 30 hours
  Infiltration Score: 1 and 2

## 20 μg SHAAYtide (SEQ ID NO: 6): 20 μg SHAAYtide without OVA (MLWRRKIGPQMTLSHAAY; SHAAGtide variant)
OVA-specific IgG; [1]
  anti-OVA IgG, individual mouse: 31 antibody units and 47 antibody units and 139 antibody units and 64 antibody units
OVA-specific IgG; intraperitoneally, 0 day
  anti-OVA IgG, average: 70 antibody units
OVA-specific IgG; intraperitoneally, 10 d
  anti-OVA IgG, average: 158 antibody units
  anti-OVA IgG, increase from day 0: 88 antibody units
  anti-OVA IgG, individual mouse: 0 antibody units (2×) and 40 antibody units and 592 antibody units
OVA-specific IgG; intraperitoneally, 15 d
  anti-OVA IgG, average: 42 antibody units
  anti-OVA IgG, increase from day 0: 0 antibody units
  anti-OVA IgG, individual mouse: 0 antibody units (3×) and 168 antibody units
OVA-specific IgG; intraperitoneally, 27 d
  anti-OVA IgG, average: 112 antibody units
  anti-OVA IgG, increase from day 0: 41 antibody units
  anti-OVA IgG, individual mouse: 122 antibody units and 110 antibody units and 116 antibody units and 98 antibody units
OVA-specific IgG; intraperitoneally, 31 d
  anti-OVA IgG, average: 40 antibody units
  anti-OVA IgG, increase from day 0: 0 antibody units
  anti-OVA IgG, individual mouse: 12 antibody units and 32 antibody units and 69 antibody units and 47 antibody units
OVA-specific IgG; intraperitoneally, 36 d
  anti-OVA IgG, average: 0 antibody units
  anti-OVA IgG, increase from day 0: 0 antibody units
  anti-OVA IgG, individual mouse: 0 antibody units

## LWRRKIGPQMTLSH [SEQ ID NO: 11]
Human FPRL1
  Designation and FPRL1 Activity: does not result in a complete loss in FRPL1 activity
  Notes: activity: Moderate
Human FPRL1; listed as CCXP11
  Designation and FPRL1 Activity: Moderate

## WRRKIGPQMTLSHAAG [SEQ ID NO: 7]
Human FPRL1
  Designation and FPRL1 Activity: Low

## MLWRRKIGPQMT [SEQ ID NO: 5]
Human FPRL1
  Designation and FPRL1 Activity: Moderate
  Notes: activity: Moderate

Reference: patent US8637043B2, “Compositions useful as ligands for the formyl peptide receptor like 1 receptor and methods of use thereof” (Chemocentryx, Inc., priority 2001, dated 2014)
